Results on 28 compounds are retold here after publication PMC8286840, “Identifying SARS-CoV-2 antiviral compounds by screening for small molecule inhibitors of Nsp3 papain-like protease” (Biochemical Journal, 2021).

Where a name gives a salt, the structure may show the parent alone. Read-outs that look alike come from different tables or passages of the source.

Assay [1] has as its target T1, SARS-CoV-2 PLpro (nsp3 1564–1878) (Severe acute respiratory syndrome coronavirus 2, UniProt P0DTD1). Nature of the assay: biochemical. Also noted: FRET-quenched peptide (Pro3) cleavage by PLpro, 10 min pre-incubation, slope over 20 min, normalised to no-compound control. As to conditions: low concentration screen, read-out: % of control remaining.
For assay [2], the target named is T1, SARS-CoV-2 PLpro (nsp3 1564–1878). As to the kind of experiment: biochemical. The arrangement: FRET-quenched peptide (Pro3) cleavage by PLpro, 10 min pre-incubation, slope over 20 min, normalised to no-compound control. As to conditions: high concentration screen, read-out: % of control remaining.

As to `C[C@@H](OC[C@@]1(c2ccccc2)CC[C@]2(CCC(=O)N2)CN1)c1cc(C(F)(F)F)cc(C(F)(F)F)c1` [Rolapitant], in assay [1] (Well no.=7469), the remaining activity at 1.25 µM stood at 104%. In assay [2] (Well no.=7469), the remaining activity at 3.75 µM came out at 96.2%.

As to `COc1ccc(C2CNC(=O)C2)cc1OC1CCCC1` (stereo not shown) [Rolipram], the remaining activity at 1.25 µM in assay [1] (Well no.=1302) came to 102%; in assay [1] (Well no.=2152) it was 101%. Moreover, the remaining activity at 3.75 µM was found to be 103% in assay [2] (Well no.=1302) and 102% in assay [2] (Well no.=2152).

For `Cn1c([N+](=O)[O-])cnc1COC(N)=O` [Ronidazole], in assay [1] (Well no.=4700), the remaining activity at 1.25 µM worked out at 99.8%. For the same compound, in assay [2] (Well no.=4700), the remaining activity at 3.75 µM was determined as 96.7%.

As for `CCCN(CCC)CCc1cccc2c1CC(=O)N2` [Ropinirole (hydrochloride)], the remaining activity at 1.25 µM in assay [1] (Well no.=8205) was determined as 99.3%. For the same compound, the remaining activity at 3.75 µM in assay [2] (Well no.=8205) amounted to 90.6%.

Turning to `CCCN(CCC)CCc1cccc2c1CC(=O)N2` [Ropinirole hydrochloride], the remaining activity at 1.25 µM in assay [1] (Well no.=1444) came to 93.6%. In addition, in assay [2] (Well no.=1444), the remaining activity at 3.75 µM came to 97.7%.

As for `CCCN1CCCC[C@H]1C(=O)Nc1c(C)cccc1C` [Ropivacaine HCl], in assay [1] (Well no.=4698), the remaining activity at 1.25 µM turned out to be 99%. The remaining activity at 3.75 µM in assay [2] (Well no.=4698) was 96.6%.

As for `CCCN1CCCC[C@H]1C(=O)Nc1c(C)cccc1C` [Ropivacaine hydrochloride], the remaining activity at 1.25 µM in assay [1] (Well no.=5891) was 98.9%. For the same compound, the remaining activity at 3.75 µM in assay [2] (Well no.=5891) turned out to be 97.5%.

For `CN(C(=O)c1c(O)c2ccccc2n(C)c1=O)c1ccccc1` [Roquinimex], in assay [1] (Well no.=6160), the remaining activity at 1.25 µM was found to be 103%. Also, in assay [2] (Well no.=6160), the remaining activity at 3.75 µM was determined as 96.9%.

On to `O[C@@H]1[C@@H](O)[C@H](OC/C=C/c2ccccc2)O[C@H](CO[C@@H]2OC[C@H](O)[C@H](O)[C@H]2O)[C@H]1O` [Rosavin], for which the remaining activity at 1.25 µM in assay [1] (Well no.=5422) turned out to be 101%. The remaining activity at 3.75 µM in assay [2] (Well no.=5422) was 104%.

As for `CN(CCOc1ccc(CC2SC(=O)NC2=O)cc1)c1ccccn1` (stereo not shown) [Rosiglitazone (Avandia)], the remaining activity at 1.25 µM in assay [1] (Well no.=4924) came to 95.4%. Besides, in assay [2] (Well no.=4924), the remaining activity at 3.75 µM was 89.9%.

On to `CN(CCOc1ccc(CC2SC(=O)NC2=O)cc1)c1ccccn1` (stereo not shown) [Rosiglitazone HCl], for which the remaining activity at 1.25 µM in assay [1] (Well no.=4758) stood at 102%. Moreover, the remaining activity at 3.75 µM in assay [2] (Well no.=4758) is 97.3%.

Take `CN(CCOc1ccc(CC2SC(=O)NC2=O)cc1)c1ccccn1` (stereo not shown) [Rosiglitazone maleate]: the remaining activity at 1.25 µM in assay [1] (Well no.=1651) amounted to 104%. Besides, in assay [2] (Well no.=1651), the remaining activity at 3.75 µM was found to be 105%.

`O=C(/C=C/c1ccc(O)c(O)c1)O[C@H](Cc1ccc(O)c(O)c1)C(=O)O` [Rosmarinic acid]: the remaining activity at 1.25 µM in assay [1] (Well no.=3940) stood at 102%; in assay [1] (Well no.=4516), 95%. Moreover, the remaining activity at 3.75 µM in assay [2] (Well no.=3140) worked out at 103%; in assay [2] (Well no.=3940), 99.3%; in assay [2] (Well no.=4516), 94.6%.

As for `CC(C)c1nc(N(C)S(C)(=O)=O)nc(-c2ccc(F)cc2)c1/C=C/[C@@H](O)C[C@@H](O)CC(=O)O` [Rosuvastatin Calcium], the remaining activity at 1.25 µM in assay [1] (Well no.=8240) was determined as 96.8%. Moreover, in assay [2] (Well no.=8240), the remaining activity at 3.75 µM is 93.8%.

With `C=C(C)[C@H]1Cc2c(ccc3c2O[C@@H]2COc4cc(OC)c(OC)cc4[C@@H]2C3=O)O1` [Rotenone], the figures for the remaining activity at 1.25 µM in assay [1] (Well no.=1494), in assay [1] (Well no.=3142) and in assay [1] (Well no.=7122) were 97.2%, 104% and 91.7%, respectively. The values for the remaining activity at 3.75 µM in assay [2] (Well no.=1494), in assay [2] (Well no.=3142) and in assay [2] (Well no.=7122) were 98.9%, 98.6% and 89.8%, respectively.

With `CCCN(CCc1cccs1)[C@H]1CCc2c(O)cccc2C1` [Rotigotine (Hydrochloride)], the remaining activity at 1.25 µM in assay [1] (Well no.=8157) came to 96.4%. Moreover, in assay [2] (Well no.=8157), the remaining activity at 3.75 µM worked out at 89.4%.

For `CCCN(CCc1cccs1)[C@H]1CCc2c(O)cccc2C1` [Rotigotine], in assay [1] (Well no.=8349), the remaining activity at 1.25 µM was found to be 92.3%. In assay [2] (Well no.=8349), the remaining activity at 3.75 µM amounted to 88.8%.

In the case of `CC(=O)c1c(O)c(C)c(O)c(Cc2c(O)c3c(c(C(=O)/C=C/c4ccccc4)c2O)OC(C)(C)C=C3)c1O` [Rottlerin], in assay [1] (Well no.=1206), the remaining activity at 1.25 µM is 103%. In addition, in assay [2] (Well no.=1206), the remaining activity at 3.75 µM is 102%.

Consider `COc1cc2c(cc1OC)[C@@H]1Cc3ccc(OC)c(OC)c3CN1CC2` [Rotundine], for which the remaining activity at 1.25 µM in assay [1] (Well no.=4894) stood at 96.9%. For the same compound, the remaining activity at 3.75 µM in assay [2] (Well no.=4894) was determined as 94.7%.

`CC(=O)OCC(=O)NCCCOc1cccc(CN2CCCCC2)c1` [Roxatidine (Acetate Hydrochloride)]: the remaining activity at 1.25 µM in assay [1] (Well no.=6701) is 102%. Also, the remaining activity at 3.75 µM in assay [2] (Well no.=6701) was 105%.

Turning to `CC(=O)OCC(=O)NCCCOc1cccc(CN2CCCCC2)c1` [Roxatidine acetate.HCl], the remaining activity at 1.25 µM in assay [1] (Well no.=2235) is 97.2%. Besides, in assay [2] (Well no.=2235), the remaining activity at 3.75 µM is 101%.

With `CC[C@H]1OC(=O)[C@H](C)[C@@H](O[C@H]2C[C@@](C)(OC)[C@@H](O)[C@H](C)O2)[C@H](C)[C@@H](O[C@@H]2O[C@H](C)C[C@H](N(C)C)[C@H]2O)[C@](C)(O)C[C@@H](C)/C(=N\OCOCCOC)[C@H](C)[C@@H](O)[C@]1(C)O` [Roxithromycin], the remaining activity at 1.25 µM in assay [1] (Well no.=2237) amounted to 101%. For the same compound, in assay [2] (Well no.=2237), the remaining activity at 3.75 µM was 102%.

`C=C1C(=O)[C@]23[C@H](CC[C@@H]1[C@@H]2O)[C@]12CO[C@@]3(O)[C@H](O)[C@H]1C(C)(C)CC[C@@H]2O` [Rubescensin A]: the remaining activity at 1.25 µM in assay [1] (Well no.=3707) stood at 95.2%. Also, the remaining activity at 3.75 µM in assay [2] (Well no.=3707) came out at 93.6%.

For the compound `CN1CCN(c2c(F)cc3c(=O)c(C(=O)O)cn4c3c2SCC4)CC1` [Rufloxacin], the remaining activity at 1.25 µM in assay [1] (Well no.=2239) is 98.6%. Besides, the remaining activity at 3.75 µM in assay [2] (Well no.=2239) came out at 97.3%.

`Cc1cncc(CN2CCC(=C3c4ccc(Cl)cc4CCc4cccnc43)CC2)c1` [Rupatadine (Fumarate)]: the remaining activity at 1.25 µM in assay [1] (Well no.=7665) came to 98.2%. The remaining activity at 3.75 µM in assay [2] (Well no.=7665) was 102%.

On to `Cc1cncc(CN2CCC(=C3c4ccc(Cl)cc4CCc4cccnc43)CC2)c1` [Rupatadine Fumarate], for which the remaining activity at 1.25 µM in assay [1] (Well no.=4925) was 103%. In assay [2] (Well no.=4925), the remaining activity at 3.75 µM was 101%.

On to `O=c1c2ccccc2nc2n1CCc1c-2[nH]c2ccccc12` [Rutaecarpine], for which the remaining activity at 1.25 µM in assay [1] (Well no.=1396) was determined as 96.2%; in assay [1] (Well no.=3709), 100%. Also, the remaining activity at 3.75 µM in assay [2] (Well no.=1396) worked out at 99.4%; in assay [2] (Well no.=3709), 101%.

As to `C[C@@H]1O[C@@H](OC[C@H]2O[C@@H](Oc3c(-c4ccc(O)c(O)c4)oc4cc(O)cc(O)c4c3=O)[C@H](O)[C@@H](O)[C@@H]2O)[C@H](O)[C@H](O)[C@H]1O` [Rutin], in assay [1] (Well no.=3711), the remaining activity at 1.25 µM came to 103%. In addition, the remaining activity at 3.75 µM in assay [2] (Well no.=3711) is 106%.
